Literature values in US20090291974A1, “BOSENTAN SALTS” (priority 2008, published 2009).

Key:
[1] = not given; remark: listed apart in the source
[2] = acidic and basic centers, overall value

solubility in acetone (acetone)	solubility in dichloromethane (dichloromethane)	solubility in ethanol (ethanol)	solubility in ethyl acetate (ethyl acetate)	solubility in hexane (hexane)	solubility in isopropanol (isopropanol)	solubility in methanol (methanol)	solubility in aqueous solution at pH 1.1 ([1]; aqueous solution, pH 1.1)	solubility in aqueous solution at pH 4.0 ([1]; aqueous solution, pH 4.0)	solubility in aqueous solution at pH 5.0 ([1]; aqueous solution, pH 5.0)	solubility in aqueous solution at pH 7.5 ([1]; aqueous solution, pH 7.5)	solubility in water ([1]; water)	overall pKa [2]	SMILES
freely soluble	freely soluble	soluble	soluble	very slightly soluble	slightly soluble	slightly soluble	–	–	–	–	–	–	COc1ccccc1Oc1c(NS(=O)(=O)c2ccc(C(C)(C)C)cc2)nc(-c2ncccn2)nc1OCCO [Bosentan monohydrate, bosentan monohydrate]
–	–	–	–	–	–	–	0.1 mg/100 ml	0.1 mg/100 ml	0.2 mg/100 ml	43 mg/100 ml	1.0 mg/100 ml	5.46	COc1ccccc1Oc1c(NS(=O)(=O)c2ccc(C(C)(C)C)cc2)nc(-c2ncccn2)nc1OCCO [Bosentan]
